“Also recorded” adds a separate entry of the source.
How the values were obtained:
[1] = system: α-mannosidase II; conditions: in words; cited from earlier work
[2] = system: B16F10 cells; conditions: Sw in drinking water (3 μg/ml) for 24 hours; cited from earlier work
[3] = system: B16 melanoma cells; test: effect of swainsonine on B16 melanoma solid tumor growth; assay type: in vivo, C57Bl/6 mice; conditions: for inhibition of B16 growth at other doses: 1.0, 0.01 and 0.001 μg Sw
Experimental: The B16 melanoma cells were purchased from American Type Culture Collection (ATCC). They were maintained in complete α-MEM (SIGMA) (with 10% fetal calf serum (FCS) (Sigma), 100 U/ml penicillin (Sigma), 100 μg/ml streptomycin (Sigma) and 2 mM glutamine (Sigma)) in Corning 75 cm^2 straight necked flasks (T75) and grown with 5.5% CO2 in air with 95% humidity in a New Brunswick Scientific water jacketed incubator. […] They were harvested using 1× Trypsin-EDTA (Sigma), centrifuged at 100×g with a Beckman TJ6 centrifuge, counted using a hemocytometer and stained with trypan blue to determine viability. The cells used for injection into the mice were washed three times in phosphate buffered saline (PBS), counted and resuspended in PBS at a final concentration of 6×10^6 cells per ml.
The swainsonine, purchased from Boehringer Mannheim, was initially suspended in PBS at 100 μg/ml. Subsequent dilutions utilized in the following experiments were made in PBS.
Fifteen female C57Bl/6 mice (6 weeks old, from Harlan Sprague Dawley Laboratories) were treated 3 times per week on a Monday-Wednesday-Friday (MWF) schedule for three weeks prior to the injection of the 6×10^5 B16 melanoma cells. The treatment consisted of 0.1 ml (total volume) intraperitoneal injections of swainsonine in the mornings before 9:00 am. The treatment groups were as follows:
The MWF treatment with the swainsonine continued after the tumor cell injection until the termination of the study. Once the tumor was palpable, electronic calipers were used to measure the length (l), width (w) and depth (d) of the tumor. The volume of the tumor was then determined by V=πr^2 ×d, with the assumption that the tumor is a […], then r=(l+w)/4.

[4] = system: splenocytes; test: effect of swainsonine on humoral immunity (PFC assay); assay type: in vivo, mouse
Experimental: The plaque forming cell (PFC) assay was done according to the method developed by Jerne and Nordin (1963). The splenocytes were washed in serum-free RPMI-1640 and brought to a final concentration of 1×10^6 cell/100 μl. Sheep red blood cells (sRBC), from The Colorado Serum Company, were labelled with protein A from Staphylococcus aureus (Sigma). The sRBC's were washed 3 times with saline (0.85% NaCl), the packed cells were then incubated with 1 ml of protein A (0.5 mg/ml saline) and 10 ml of saline containing 0.1 μl of CrCl3 (35% solution) (Aldrich), for 20 minutes. The sRBC's were then washed 3 times with PBS and suspended in PBS to make a 30% solution. The sRBC's (50 μl) and splenocytes (100μl) were combined with SeaPlaque agarose (FMC Corporation) and smeared on a 75 mm×50 mm microscope slide to form a lawn of target red blood cells with uniformly dispersed effector cells. Each sample was done in triplicate. The agarose was allowed to harden and the slides were placed in trays containing serum-free RPMI-1640. The trays were incubated at 37° C. in a CO2 incubator for 90 min. After incubation the slides were placed in slide holders containing normal saline for a wash step. The rabbit/anti-mouse antibody (DAKO Corporation) was diluted 1:400 with serum free RPMI-1640 and added to the slide trays. Following another 90 min. incubation at 37° C. in a CO2 incubator, the slides were again washed. Fresh frozen guinea pig complement (GIBCO) (2%) in serum-free RPMI-1640 was added to the slide trays and incubated for another 60 to 90 min. depending on the time necessary for plaque formation. The number of plaques were counted and the results reported as number of plaque forming cells per 1×10^6 splenocytes.
Mice were pretreated for 3 weeks with Sw (0.1 μg and 0.01 μg), and then received B16 cells. At 3 time points post tumor cell injection (day 0, 7 and 14), the mice were sacrificed and the spleens were removed. The cells were then used to determine the effect of Sw on humoral immunity. […] The presence of a day 7 tumor caused a return to baseline for all the groups. […]

[5] = system: solid tumor models; conditions: in words; cited from earlier work
[6] = system: canine glioma (CG) cells; test: NMR T-2* linewidth of canine glioma cells; assay type: cell-based
Description: These measurements correlate with the status of the cell surface oligosaccharide display. When the GFE decreases, as in cellular senescence, the linewidth measurements decrease, indicating an increased frequency of motion of unfrozen water on the surface. […] Additional data which supports this phenomenological connection between linewidth changes and the functional surface organization include; t-butanol extraction results in uniform decreases in the linewidth; biomodulator treatment of PDL-35 IMR-90s prevents the linewidth changes observed with the senescent populations; and the correlation between the cell surface organization changes and the linewidth data. […] The cells used for all these experiments are between passage 30 and passage 75.
In the growth transformed population we use the term unregulated to distinguish the models. In this case the linewidth for the CG controls are much higher than the IMR-90 values and the re-regulation results in a lowering of these values, approaching the data for the IMR-90s.
The cell surface oligosaccharide display was assessed by methods developed previously. In brief, cells from a sub-culturing were aliquotted into 96 well trays at 5×10^5 cells per ml, 100 μL aliquots. After 16 hours of culture the cells were washed, fixed, and blocked with 0.1% BSA/PBS. Optimal lectin concentrations (5 μg/ml)were used to give 80 to 90% saturation of the available sites. Three carbohydrate ligands at 10 μg concentrations in triplicate or quadruplicate were then used to prepare competition curves for the lectin binding. The Bound over Free (B/F) ratio was calculated and the Ligand microprocessor program was used to determine the optimal fit of the data to a polynomial generated model. The Gibb's Free Energy (GFE) was calculated from the Scatchard data on the competition assay by the following equation: GFE=-RT ln Kequil. The proton NMR linewidth measurements were conducted as described previously.

[7] = system: IL-2R; LAK; conditions: in words, cited from earlier work
[8] = system: antibody formation; conditions: in words, cited from earlier work

O[C@H]1[C@H]2[C@H](O)CCCN2C[C@H]1O [Swainsonine, swainsonine]
α-mannosidase II [1]: inhibition of α-mannosidase II
stimulation of CTL [2]: no stimulation of CTL
delay of tumor growth onset ([3]; 0.1 μg Sw): two
reduction of tumor size compared to controls ([3]; 0.1 μg Sw, day 9, p=0.03): 74%
reduction of tumor size compared to controls ([3]; 0.1 μg Sw, day 11, p=0.003): 68%
day of palpable tumors ([3]; 0.1 μg Sw, control day 5): 7 days
day of measurable tumors ([3]; 0.1 μg Sw, control day 7): 9 days
tumor growth at 1.0 μg ([3]; 1.0 μg Sw, in words): enhanced growth
inhibition of B16 growth at other doses ([3]; in words): no effect on delaying growth
inhibition of B16 growth at other doses ([3]; in words, listed as Sw): less effective at inhibiting the B16 growth (p<0.5)
increase in plaque forming cells (PFC) ([4]; 0.01 μg Sw 3 weeks over mice not receiving Sw, p=0.001): 89%
PFC versus control group ([4]; 0.1 μg Sw without tumor, in words): not as significantly different from the control group (p=0.04)
PFC versus controls ([4]; 0.1 μg Sw, day 14, in words): not a significant difference between the controls and these treated mice (p=0.13)
growth of other solid tumors [5]: delay growth in several other solid tumor models
T-2* linewidth ([6]; 233 K, four weeks of treatment, mean ± SD): 300 ± 8
linewidth change versus controls ([6]; after one treatment / one week, in words, listed as Sw): significant (P>0.01]) decreases in linewidth; also recorded: significantly (P>0.01) different from those of the untreated controls
linewidth after treatment withdrawal versus control ([6]; four weeks treatment, one week withdrawal, in words): still significantly different from control values
lymphoid IL-2R expression and IL-2 induced proliferation ([7]; following mitogenic stimulation): augmented lymphoid IL-2R expression and IL-2 induced proliferation
LAK induction ([7]; normally sub-optimal stimulation doses): augmented the LAK induction
antibody production after immunosuppressive factor ([8]; Sw 3.7-100 mg/kg i.p. 5 days): return to normal levels of antibody production
PFC numbers, Sw alone [8]: no changes in PFC numbers

Source: patent US5919464A, “Treatment of aberrant cellular states with biomodulators” (University of New Mexico, priority 1993, dated 1999)
